Reference: US11331327B2, “Antibacterial use of halogenated salicylanilides” (UNION therapeutics A/S, priority 2014, dated 2022)
Several values for one entry are separate records, joined by “and”; a condition that tells them apart may be missing. Identical values can stand only once. Like-named read-outs stand apart in the source and are kept apart here. Marks after values point to notes of the source that are not given here.

Assays:
[1] = cited from earlier work; for LD50 rats p.o: Table 3
S. pyogenes strains = experiment: Minimum Inhibitory Concentration (MIC) assay, Example 1, S. pyogenes strains; type: cell-based, Streptococcus pyogenes; settings: Streptococcus pyogenes, read-out: Mic100 S. pyogenes
Method: (§1) Strains were conserved in Luria Bertani (LB) Broth (S. aureus) or Brain Heart Infusion (BHI) (S. pyogenes) supplemented with glycerol 15% (v/v) at −80° C., and reactivated by isolation on LB (S. aureus) or BHI (S. pyogenes) agar plates. Strains were cultivated in Mueller Hinton (MH) Broth-cation adjusted (S. aureus) supplemented with lysed horse blood 2.5% (v/v) (S. pyogenes). All strains were cultivated at 37° C., aerobically for S. aureus strains.
(§2) Bacterial cultures were stopped in their exponential growth phase and plates were inoculated with the approximate concentration of 10^3 cells per well. Plates were incubated at 37° C. for 18 hours (S. aureus) or 24 hours (S. pyogenes). Optical density at a wavelength of 600 nm was measured at the end of the incubation time. […] Experiments were performed at least as triplicate biological replicates with all strains.

[2] = tested on: MRSA 01, MRSA 15, MRSA 16; experiment: Mutational frequency evaluation, Example 1; type: cell-based, Staphylococcus aureus; settings: for Resistance mutation rate at MIC × 1: tested against one strain: MRSA 01; for mutational frequency at MIC×1: text summary of Table 4
Method: Adequate dilutions were plated on plates without the compound.
Viable cell growth was enumerated after 48 hours of incubation at 37° C.
Ten replicates were carried out for each strain and fusidic acid, mupirocin and retapamulin were used as controls for the MRSA 01 strain.

S. aureus strains = experiment: Minimum Inhibitory Concentration (MIC) assay, Example 1, S. aureus strains; type: cell-based; settings: Staphylococcus aureus, read-out: Mic100 S. aureus
Method: as §1, §2

[3] = in vivo; cited from earlier work
[4] = cited from earlier work
[5] = tested against one strain: S. pyogenes 01

Row | Compound | LD50 rats p.o [1] | LD50 ([1]; rats, p.o.) | MIC (S. pyogenes strains; [5]) | Resistance mutation rate at MIC × 1 [2] | mutational frequency at MIC×1 [2] | MIC (S. aureus strains; S. aureus strains) | safety margin after oral administration [3] | MIC (S. aureus strains; tested against one strain: MRSA 01) | LD50 median ([1]; rats, p.o., median of studies) | LD50 mice p.o ([4]; Table 3) | LD50 ([4]; mice, p.o.) | MIC (S. pyogenes strains) | MIC (S. aureus strains; MRSA)
1 | Cc1cc(C(C#N)c2ccc(Cl)cc2)c(Cl)cc1NC(=O)c1cc(I)cc(I)c1O (stereo not drawn) [Closantel, N-[5-chloro-4-[(4-chlorophenyl)cyanomethyl]-2-methylphenyl]-2-hydroxy-3,5-diiodobenzamide] | 300 mg/kg | 262 to 342 mg/kg | 12.8 µg/mL and 19 µM | = 2 × 10^−8* | 2×10^−8 | ≤ 1.7 µg/mL and ≤ 2.5 µM | – | – | – | – | – | – | –
2 | O=C(Nc1cc(Cl)cc(Cl)c1O)c1c(O)c(Cl)cc(Cl)c1Cl [Oxyclozanide, 3,3′,5,5′,6-pentachloro-2′-hydroxysalicylanilide] | 980 to 3500 mg/kg | 980 to 3519 mg/kg | 6.4 µg/mL and 15.9 µM | – | 1×10^−7 | – | Low safety margin | 1.6 µg/mL and 4 µM | – | – | – | – | –
3 | O=C(Nc1ccc(Oc2ccc(Cl)cc2)c(Cl)c1)c1cc(I)cc(I)c1O [Rafoxanide, 3′-chloro-4′-(p-chlorophenoxy)-3,5-diiodosalicylanilide] | 1500 mg/kg | 980->2000 mg/kg | – | = 5 × 10^−9* | 5×10^−9 | – | – | – | > 1490 mg/kg | 270 mg/kg | 232 to 300 mg/kg | 6.4 µg/mL and 10 µM | 0.8 µg/mL and 1.25 µM
